Patent US12286439B2, “Inhibitors of ERK nuclear translocation” (Yeda Research and Development Co. Ltd., priority 2018, dated 2025)
“Also recorded” adds a separate entry of the source.

What was measured:
Format in all cases: cell-based
[1] = test system: A2185 cells; assay: Viability assay, dose response in A2185 cells; conditions: 0.1-10 μM, 72 hours, 1% FCS
Experimental: Four cancer cells, A2185, A2352, HeLa and MCF7 were grown in 1% FCS containing 10 μM of either EPE peptide, or Compounds Z56, Z1, Z2 or Z3, for 72 hours. Bars indicate average of 2 independent experiments done in triplicate ±SE. FIG. 8B presents dose response curves for Compounds Z56, Z1 and Z2. A2185 cells were grown in 1% FCS containing DMSO (0.1%) EPE or Scramble (Scr) peptide (10 μM), Compounds Z56, Z1, Z2, Z3 ([…]) or no treatment (FCS 1%) for 72 hours. Empty squares represent individual data points of proliferation. Full squares indicate average proliferation of 2 independent experiments done in triplicate ±SE. Bold horizontal line indicates arbitrary threshold (40%) for what is considered an active compound. Cell viability (as shown in FIGS. 8A and 8B) was measured by staining with methylene blue, and data presents proliferation normalized to DMSO control. […] Cell lysates were analyzed by Western blot with the corresponding antibodies. […]
Cells were seeded at low confluence into 24, 48 or 96-well plates in complete medium. […] Color was extracted by adding 0.1 M HCl (3 hours, 23° C.), and absorbance measured at 595 nm in an ELISA reader. For time course experiments, attached cells were fixed and measured at 0, 24, 48, 72 and 96 hours. […]

[2] = test system: c-Myc phosphorylation (nuclear target of ERK1/2); assay: Western blot, phosphorylated c-Myc; conditions: 10 μM, 2 hours; TPA; both A2185 and HeLa cells
Experimental: (§1) CoIP assay was conducted using αERK1 (C-terminus) antibodies conjugated to protein A/G agarose beads. The precipitates were analyzed by Western blot using the indicated antibodies. Whole cell lysates (WCL) and αIgG-mouse (IgG) are shown as controls. […] Cell extracts were analyzed by Western blot with the indicated antibodies. […] The same extracts described in (B) were subjected to Western blot analysis using αpAkt Abs. The closest molecular weight marker (kDa) is shown on the right of all relevant panels.
(§2) Bars indicate average of 2 independent experiments done in triplicate ±SE. […] Empty squares represent individual data points of proliferation. Full squares indicate average proliferation of 2 independent experiments done in triplicate ±SE. […] Cell viability (as shown in FIGS. 8A and 8B) was measured by staining with methylene blue, and data presents proliferation normalized to DMSO control. […] Cell lysates were analyzed by Western blot with the corresponding antibodies. Closest molecular marker is indicated at the right of each panel.
(§3) Preparation of Cellular Extracts and Western Blotting:
(§4) Cells were grown to 70% confluence and serum starved (0.1% FCS, 16 hours). After treatments, cells were rinsed twice with ice-cold PBS−/− and scraped into RIPA buffer. […]

[3] = test system: Elk1 phosphorylation (nuclear target of ERK1/2); assay: Western blot, phosphorylated Elk1; conditions: 10 μM, 2 hours; TPA; melanoma cell line A2185
Experimental: as §1, §2, §3, §4

[4] = test system: ERK1/2 nuclear translocation; assay: Determination of ERK1/2 localization by fluorescence microscopy after TPA stimulation; conditions: 10 μM, 2 hours, TPA 100 nM, 15 minutes
Procedure, shortened: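 HeLa, A2185 and A2352 melanoma cells treated with compounds for 2 h around TPA stimulation, then fixed (4% PFA), permeabilized and stained with anti-ERK antibodies, fluorescent secondaries and DAPI. Nuclear ERK1/2 localization scored by fluorescence microscopy (×40).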

[5] = test system: RSK1 phosphorylation (cytoplasmic target of ERK1/2); assay: Western blot, phosphorylated RSK1; conditions: 10 μM, 2 hours; TPA; A2185 or HeLa cells
Experimental: as §1, §2, §3, §4

[6] = test system: ERK1/2 phosphorylated at the TEY activation loop motif; assay: Western blot, ERK1/2 activation loop (TEY) phosphorylation; conditions: 10 μM, 2 hours; TPA; A2185 or HeLa cells
Experimental: as §1, §2, §3, §4

SMILES: O=C(OC1C=CS(=O)(=O)C1)c1ccccc1 (stereo not shown) [Compound Z2]
- cell viability, dose response curve [1]: dose dependent manner; also recorded: somewhat less potent than Compound Z56
- levels of phosphorylated c-Myc [2]: decreased
- levels of phosphorylated Elk1 [3]: decreased significantly
- nuclear accumulation of ERK1/2 upon TPA stimulation ([4]; A2185 and A2352 cells): inhibited
- stimulated nuclear translocation of ERK1/2 ([4]; A2352, A2185 and HeLa cells): significantly reduced
- phosphorylation of the cytosolic target RSK1/2 [5]: none of Compounds Z56, Z1, Z2 or Z3 affected
- phosphorylation of the activation loop of ERK1/2 [6]: none of Compounds Z56, Z1, Z2 or Z3 affected
